The results in this text go back to patent US10150793B2, “Antagonists of CB1 receptor” (INSERM (Institut National de la Santé et de la Recherche …, priority 2011, dated 2018).

One data set concerns dopaminergic neurons. The data set can be described thus: Coupled in vivo microdialysis and electrophysiology: VTA dopaminergic neuron firing and dopamine outflow in nucleus accumbens. Also on record: species or system rats. As for the experimental part: Surgery and perfusion procedure were performed to allow concomitant electrophysiological and microdialysis monitoring. Briefly, rats were anesthetized using a 2% mixture of isoflurane/air, and a catheter was inserted into the femoral vein for intravenous drug administration. Thereafter, animals were placed in a stereotaxic frame (David Kopf Instruments, Phymep, Paris, France) equipped with a nose mask for constant delivery of the gas anesthesia (2% isoflurane during surgery, 1.5% isoflurane during electrophysiology and microdialysis experiment), and their rectal temperature was monitored and maintained at 37±1° C. by a heating pad (CMA 150, Carnégie Medecin, Phymep). […]
Single unit recording of DA neuronal firing and monitoring of DA extracellular levels were started 2 h after the beginning of probe perfusion (stabilization period). Dialysates (30 μL) were collected on ice every 15 min, and immediately analyzed to determine the baseline values of DA extracellular levels, defined by three consecutive samples in which DA content varied by less than 10% (9). […] DA neuron firing rate was recorded for 3-5 min to obtain the firing baseline, defined by a variation of less than 10% of the average frequency discharge of the DA neuron. […]
In this example the inventors further analyzed the ability of pregnenolone to inhibit the effects of CB1 activation. […]

The nature of data set [1]: Plasmatic levels of pregnenolone and allopregnanolone after subcutaneous injection or Alzet minipumps. The format is in vivo, mice. On the procedure: Micro-osmotic pumps (Alzet Osmotis Pumps, Charles River, France) with a pump rate of 0.15 μl/hr (model 2006) were filled with pregnenolone dissolved in PEG300 (85%) and ethanol (15%) at a concentration of 125 or 250 mg/ml (corresponding respectively to a daily dose of 12 or 24 mg/kg body weight) and implanted subcutaneously after light anesthesia. All pumps were primed by soaking them in saline at 37° C. for 60 h before implantation.
The effects of pregnenolone administration on plasmatic levels of pregnenolone were compared (n=5 per group) when pregnenolone was administered subcutaneously (6 mg/kg) or by Alzet micro-osmotic pumps (Alzet Osmotis Pumps, Charles River, France, model 2006) that simulate an extended release formulations of pregnenolone. Thus, these mini pump implanted subcutaneously provide a steady release of pregnenolone. Two pregneolone concentrations were used 0.6 mg/kg/hour and 1 mg/kg/hour (10 times and six times lower than the dose administered subcutaneously). […] The half life of pregnenolone administered subcutaneously was quite short (half an hour) and the increase in allopregnanolone was maintained over one hour (FIG. 20). […] Also pregnenolone levels remained in the range of effective therapeutic doses over two weeks.

The next data set has as its target CB1 receptor (Rattus norvegicus, UniProt P20272). The data set can be described thus: THC-induced increase in food intake in ad libitum fed Wistar rats. In kind it is in vivo. Also on record: tissue Charles River Laboratories (France) (animals); host or cells: living Wistar rats, whole animal. As for the experimental part: Food intake was evaluated by measuring consumption of food in the home cages of the animals. For each animal, 50-100 g of standard laboratory chow (U.A.R., France) was placed in the cleaned home cage. The remaining amount of food was weighted 1 h later and the amount of food consumed calculated.

Where [2] appears, read: Alzet minipump at 0.6 mg/kg/hour.

Chain of CB1 receptor (P20272 whole entry): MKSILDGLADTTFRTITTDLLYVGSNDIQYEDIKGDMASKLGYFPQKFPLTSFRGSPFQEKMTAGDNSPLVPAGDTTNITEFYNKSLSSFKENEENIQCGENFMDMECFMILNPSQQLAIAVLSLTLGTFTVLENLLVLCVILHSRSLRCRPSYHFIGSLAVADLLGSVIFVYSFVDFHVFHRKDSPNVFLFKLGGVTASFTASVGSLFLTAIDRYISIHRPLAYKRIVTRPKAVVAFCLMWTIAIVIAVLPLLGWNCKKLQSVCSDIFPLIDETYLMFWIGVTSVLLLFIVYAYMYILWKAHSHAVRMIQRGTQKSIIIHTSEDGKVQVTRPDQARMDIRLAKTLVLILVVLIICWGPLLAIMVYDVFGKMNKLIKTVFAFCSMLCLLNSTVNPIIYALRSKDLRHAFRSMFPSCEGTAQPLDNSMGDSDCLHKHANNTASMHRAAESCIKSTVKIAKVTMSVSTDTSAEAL

In the case of `CC(=O)[C@H]1CC[C@H]2[C@@H]3CC=C4C[C@@H](O)CC[C@]4(C)[C@H]3CC[C@]12C` [Pregnenolone, 5-Pregnen-3β-ol-20-one], the “effect on cocaine-induced increase in activity of the dopaminergic system” value in the data set with dopaminergic neurons (pregnenolone 2 mg/kg sc 30 min before cocaine 0.0125 to 0.8 mg/kg iv cumulative) is on record as “able to antagonize the increase in activity of the dopaminergic system”. Besides, the “effect on THC-induced increase in dopamine release and dopaminergic neuron activity” value with dopaminergic neurons (sc 30 min prior to THC 0.15 to 1.2 mg/kg iv cumulative) is “strongly blunted the increase in dopamine release and in the activity of the dopaminergic neurons”. Also, the plasma allopregnanolone result in data set [1] (setting [2]) is recorded as “did not increased allopregnanolone”; in data set [1] (Alzet minipump at 1 mg/kg/hour), “allopregnanolone did not increase”; in data set [1] (pregnenolone subcutaneously at 6 mg/kg), “induced an increase in allopregnanolone”. Moreover, in data set [1] (setting [2]), the plasmatic pregnenolone entry was “increased in the range of the maximum increase observed after the subcutaneous injection”. For the same compound, in data set [1] (Alzet minipump at 1 mg/kg/hour), the pregnenolone plasmatic concentrations entry was “at the double of what observed after 6 mg/kg”. Further, the half life result in data set [1] (administered subcutaneously) was “half an hour”. The half-life entry in data set [1] (mouse, in vivo) is reported as “approximately 30 min”. For the same compound, in data set [1] (subcutaneous injection), the “duration of the increase in pregnenolone levels” value is less than 1 h. Besides, the “plasmatic levels of pregnenolone” value in data set [1] (subcutaneously at 6 mg/kg) is “around 100 ng/ml”. Also, on CB1 receptor (THC 0.5 mg/kg, pregnenolone 30 min before THC), the “effect on THC-induced food intake in sated rats” value is given as “dose-dependently decreased THC-induced food intake”. In addition, the “effect on basal food intake” value on CB1 receptor (pregnenolone 2 mg/kg, FIG. 3 A, B) is “did not significantly modified basal food intake”. Besides, the “dose with statistically significant effect on THC-induced food intake” value at CB1 receptor (sated rats, THC 0.5 mg/kg) is 2 mg/kg.
